From patent publication US20170333591A9, “ABSORBENT ARTICLE COMPRISING MALODOR REDUCTION COMPOSITIONS” (The Procter & Gamble Company, priority 2014, published 2017)

Assay: Log of liquid dish neat product liquid-air partition coefficient
Type: physicochemical
Details: not given

Which “Comment Code: Log of liquid dish neat product liquid-air partition coefficient” value (shortened to “Comment Code: Log”) does the source give for CC12CCCC(O)(C1)C1CC(C)(C)C1CC2 (stereo not shown) [Material 574] here?
The value was “K (Log of liquid dish neat product liquid-air partition coefficient greater than or equal to 7)”.

Which “Comment Code: Log” value does the source give for Cc1ccc(C(C)C)cc1O [Material 575] here?
The value was “K (Log of liquid dish neat product liquid-air partition coefficient greater than or equal to 7)”.

With CCOCCOCCO [Material 579] as the compound, how does the “Comment Code: Log” value read?
Its value is “K (Log of liquid dish neat product liquid-air partition coefficient greater than or equal to 7)”.

For CC1=C(C/C=C(\C)C=O)C(C)(C)CCC1 [Material 602], which “Comment Code: Log” value is on record?
Its value is “K (Log of liquid dish neat product liquid-air partition coefficient greater than or equal to 7)”.

For CC(C)C(=O)OC1CC2CCC1(C)C2(C)C (stereo not shown) [Material 603], which “Comment Code: Log” value is on record?
The value was “K (Log of liquid dish neat product liquid-air partition coefficient greater than or equal to 7)”.

For C=C1C2CCC(C2)C1(C)CCC=C(C)CO (stereo not shown) [Material 616], which “Comment Code: Log” value is on record?
The value was “K (Log of liquid dish neat product liquid-air partition coefficient greater than or equal to 7)”.

For CC1=C2CCC3(C)OC3C2C(C)(C)CCC1 (stereo not shown) [Material 624], which “Comment Code: Log” value is on record?
Its value is “K (Log of liquid dish neat product liquid-air partition coefficient greater than or equal to 7)”.

With COC(Cc1ccccc1)OC [Material 627] as the compound, how does the “Comment Code: Log” value read?
Its value is “K (Log of liquid dish neat product liquid-air partition coefficient greater than or equal to 7)”.

With CC(=O)CCc1ccccc1 [Material 640] as the compound, how does the “Comment Code: Log” value read?
The value was “K (Log of liquid dish neat product liquid-air partition coefficient greater than or equal to 7)”.

Which “Comment Code: Log” value does the source give for CC(C)CC(=O)OCc1ccccc1 [Material 645] here?
Its value is “K (Log of liquid dish neat product liquid-air partition coefficient greater than or equal to 7)”.

Which “Comment Code: Log” value does the source give for CC(C)C(=O)OCc1ccccc1 [Material 647] here?
Its value is “K (Log of liquid dish neat product liquid-air partition coefficient greater than or equal to 7)”.

With CC(C)C1OCCC2(CC3CCC2(C)C3(C)C)O1 (stereo not shown) [Material 659] as the compound, how does the “Comment Code: Log” value read?
Its value is “K (Log of liquid dish neat product liquid-air partition coefficient greater than or equal to 7)”.

Same assay, conditions: code letters K/L of the Comment Code

Which “Log of liquid dish neat product liquid-air partition coefficient (Comment Code)” value (shortened to “Log … (Comment Code)”) does the source give for CC12CCCC(O)(C1)C1CC(C)(C)C1CC2 (stereo not shown) [Material 574] here?
Its value is “K (Log of liquid dish neat product liquid-air partition coefficient greater than or equal to 7)”.

For C=C(C)C1CC=C(C)C(OC(C)=O)C1 (stereo not shown) [Material 577], which “Log … (Comment Code)” value is on record?
Its value is “K (Log of liquid dish neat product liquid-air partition coefficient greater than or equal to 7)”.

Which “Log … (Comment Code)” value does the source give for CCCCCCCCCC(=O)O [Material 582] here?
Its value is “K (Log of liquid dish neat product liquid-air partition coefficient greater than or equal to 7)”.

For COc1ccc(CC(C)C=O)cc1 (stereo not shown) [Material 586], which “Log … (Comment Code)” value is on record?
The value was “K (Log of liquid dish neat product liquid-air partition coefficient greater than or equal to 7)”.

Which “Log … (Comment Code)” value does the source give for CC12CCC(C(=O)C1=O)C2(C)C (stereo not shown) [Material 587] here?
The value was “K (Log of liquid dish neat product liquid-air partition coefficient greater than or equal to 7)”.

For CCCCOC(=O)C(C)OC(=O)CCC (stereo not shown) [Material 595], which “Log … (Comment Code)” value is on record?
Its value is “K (Log of liquid dish neat product liquid-air partition coefficient greater than or equal to 7)”.

With C=CCCCCCCCCC(=O)OCCCC [Material 599] as the compound, how does the “Log … (Comment Code)” value read?
The value was “K (Log of liquid dish neat product liquid-air partition coefficient greater than or equal to 7)”.

Which “Log … (Comment Code)” value does the source give for CC1=CCC(CCC(C)CO)C1(C)C (stereo not shown) [Material 600] here?
Its value is “K (Log of liquid dish neat product liquid-air partition coefficient greater than or equal to 7)”.

For CC(C)(C)c1ccc(CCC=O)cc1 [Material 601], which “Log … (Comment Code)” value is on record?
The value was “K (Log of liquid dish neat product liquid-air partition coefficient greater than or equal to 7)”.

Which “Log … (Comment Code)” value does the source give for CC(C)C(=O)OC1CC2CCC1(C)C2(C)C (stereo not shown) [Material 603] here?
The value was “K (Log of liquid dish neat product liquid-air partition coefficient greater than or equal to 7)”.

For C=C1C2CCC(C)(OCC)C1CCC2(C)C (stereo not shown) [Material 606], which “Log … (Comment Code)” value is on record?
The value was “K (Log of liquid dish neat product liquid-air partition coefficient greater than or equal to 7)”.

With CCOCOC1CCCCCCCCCCC1 [Material 607] as the compound, how does the “Log … (Comment Code)” value read?
The value was “K (Log of liquid dish neat product liquid-air partition coefficient greater than or equal to 7)”.

With CC(C)=CCCC(C)=C1CC=C(C)CC1 [Material 608] as the compound, how does the “Log … (Comment Code)” value read?
Its value is “K (Log of liquid dish neat product liquid-air partition coefficient greater than or equal to 7)”.

For CC1=CC(=O)CC(C)C12CCC(=C(C)C)C2 (stereo not shown) [Material 610], which “Log … (Comment Code)” value is on record?
Its value is “K (Log of liquid dish neat product liquid-air partition coefficient greater than or equal to 7)”.

For C=C(C)C1CCC(C)(OC(C)=O)CC1 (stereo not shown) [Material 611], which “Log … (Comment Code)” value is on record?
The value was “K (Log of liquid dish neat product liquid-air partition coefficient greater than or equal to 7)”.

For C=C(C)C1CCC(C)(O)CC1 (stereo not shown) [Material 612], which “Log … (Comment Code)” value is on record?
Its value is “K (Log of liquid dish neat product liquid-air partition coefficient greater than or equal to 7)”.

Which “Log … (Comment Code)” value does the source give for C=CC(=C)CCC=C(C)CCC=C(C)C=O [Material 613] here?
Its value is “K (Log of liquid dish neat product liquid-air partition coefficient greater than or equal to 7)”.

Which “Log … (Comment Code)” value does the source give for C=C1C=CC(C(C)CCC=C(C)C)CC1 (stereo not shown) [Material 614] here?
Its value is “K (Log of liquid dish neat product liquid-air partition coefficient greater than or equal to 7)”.

With C=C(C)C1CCC2(C)CCCC(=C)C2C1 (stereo not shown) [Material 615] as the compound, how does the “Log … (Comment Code)” value read?
Its value is “K (Log of liquid dish neat product liquid-air partition coefficient greater than or equal to 7)”.

For C=C1C2CCC(C2)C1(C)CCC=C(C)CO (stereo not shown) [Material 616], which “Log … (Comment Code)” value is on record?
The value was “K (Log of liquid dish neat product liquid-air partition coefficient greater than or equal to 7)”.

Which “Log … (Comment Code)” value does the source give for CC1=C2CCC3(C)OC3C2C(C)(C)CCC1 (stereo not shown) [Material 624] here?
The value was “K (Log of liquid dish neat product liquid-air partition coefficient greater than or equal to 7)”.

For COC(Cc1ccccc1)OC [Material 627], which “Log … (Comment Code)” value is on record?
The value was “K (Log of liquid dish neat product liquid-air partition coefficient greater than or equal to 7)”.

Which “Log … (Comment Code)” value does the source give for C=CC(=C)CCC=C(C)CCC=C(C)C [Material 628] here?
The value was “K (Log of liquid dish neat product liquid-air partition coefficient greater than or equal to 7)”.

Which “Log … (Comment Code)” value does the source give for CC(=O)C=CC12OC1(C)CCCC2(C)C (stereo not shown) [Material 636] here?
Its value is “K (Log of liquid dish neat product liquid-air partition coefficient greater than or equal to 7)”.

For CC(C)(O)CCc1ccccc1 [Material 639], which “Log … (Comment Code)” value is on record?
Its value is “K (Log of liquid dish neat product liquid-air partition coefficient greater than or equal to 7)”.

With CC(C)(O)Cc1ccccc1 [Material 649] as the compound, how does the “Log … (Comment Code)” value read?
Its value is “K (Log of liquid dish neat product liquid-air partition coefficient greater than or equal to 7)”.

For CC(C)C1OCCC2(CC3CCC2(C)C3(C)C)O1 (stereo not shown) [Material 659], which “Log … (Comment Code)” value is on record?
Its value is “K (Log of liquid dish neat product liquid-air partition coefficient greater than or equal to 7)”.

Which “Log … (Comment Code)” value does the source give for CC(C)=CCCC1=CCC(C#N)CC1 (stereo not shown) [Material 660] here?
Its value is “K (Log of liquid dish neat product liquid-air partition coefficient greater than or equal to 7)”.
